In article PMC5017749, “Preclinical Metabolism, Pharmacokinetics and In Vivo Analysis of New Blood-Brain-Barrier Penetrant Fingolimod Analogues: FTY720-C2 and FTY720-Mitoxy” (PLoS ONE, 2016):
Read-outs that look alike come from different tables or passages of the source.

How the values were obtained:
[1] = Metabolite profiling and identification in human hepatocytes; type: in vitro ADME; set-up: key to Source (peak identified in human hepatocytes): R = Rat; hr = Human; lowercase letter indicates low abundance; h: lowercase letter indicates low abundance; conditions: for Percent Distribution (1 hr incubation) Human / Percent Distribution (2 hr incubation) Human: relative abundance among metabolites of the parent (1 μM), equal LC/MS sensitivity assumed
Experimental: (§1) Cryopreserved hepatocytes were grown in culture and incubations were performed to generate samples to measure the formation of FTY720-C2 and FTY720-Mitoxy metabolites. Incubations of 1 mL medium containing 1 million cells and 1 μM of FTY720-C2 and FTY720-Mitoxy were conducted at 37° C in a 5% CO2 incubator for 0, 1 and 2 hr, with gentle shaking. Positive control incubations used a cocktail solution containing 10 μM testosterone and 10 μM diclofenac performed for 0, 1 and 2 hr, under similar conditions to confirm the metabolic activity of the hepatocytes. The reactions were terminated by adding 2 mL acetonitrile containing 0.02% formic acid, and thoroughly mixing with gentle vortexing. Samples were transferred into 6 mL vials and stored in the freezer (-70°C) overnight for protein precipitation. Following overnight precipitations, samples were centrifuged at 3,000 rpm for 10 min to pellet proteins. Supernatants were transferred into clean 6 mL vials and evaporated to dryness using a TurboVap concentrator system. Samples were reconstituted using 600 μL 20% acetonitrile in water, briefly vortexed to resuspend, then aliquoted for LC-MS/MS analysis. Controls incubations also included “No drug control” and “no cell control” samples treated in a similar manner as test article samples.
(§2) Metabolite profiling and identification experiments were conducted by LC-MS/MS, composed of an HPLC system consisting of an Agilent Technologies 1200 Series Model G1322A Degasser, Agilent Technologies 1200 Series Model G1312A Binary Pump, Shimadzu HTc autosampler, and Valco Model E60 Flow Diversion Valve, and coupled to an API 4000 mass spectrometer. Separations were accomplished on a Gemini C18 column (150 × 2.0 mm, 5-μm particles; Phenomenex Inc., Torrance, CA), preceded by a SecurityGuard C18 guard column (4.0 × 2.0 mm; Phenomenex Inc.). A two-component mobile phase, consisted of a linear gradient of water containing 0.5% formic acid (v/v) and methanol:acetonitrile (1:1, v/v) containing 0.5% formic acid (v/v), was pumped at 0.3 mL/min. The first 4 min of flow was diverted away from the mass spectrometer. Analysis of the positive control samples was conducted with an HPLC system consisting of two Shimadzu LC-10ATvp pumps and a LEAP Pal autosampler. Separations were accomplished on a Luna C8(2) column (50 × 2.0 mm, 3-μm particles; Phenomenex Inc., Torrance, CA), preceded by a SecurityGuard C18 column (4.0 × 2.0 mm; Phenomenex Inc.). Separation was accomplished with a gradient of water containing 0.2% formic acid and 0.012% NH4OH (v/v) versus acetonitrile at an initial rate of 0.7 mL/min. An API 4000 QTrap mass spectrometer (AB Sciex, Foster City, CA) was used for analysis of positive control samples. Each mass spectrometer used was equipped with an electrospray ionization source and operated in the positive ionization mode. Metabolite identification experiments were performed by recording full scan mass spectral data (Q1MS) for all samples, and selected samples were analyzed to obtain product ion spectra (MS/MS) of test article metabolites identified in the full scan mass spectral data.

[2] = Metabolic stability (intrinsic clearance) in monkey liver microsomes; type: in vitro ADME, monkey (Cynomolgus); conditions: monkey liver microsomes
Experimental: (§3) Liver microsomal incubations contained 0.1mg/mL microsomal proteins and 1 μM of FTY720-C2 or FTY720-Mitoxy in 100 mM potassium phosphate buffer (pH 7.4) ± an NADPH regenerating system (3.5 mM glucose 6-phosphate, 1.3 mM NADP^+, and 0.4 units/mL glucose-6-phosphate dehydrogenase). Following incubations, reactions were terminated for analysis after 0, 10, 20, 30, and 60 min by the addition of acetonitrile containing C17 sphingosine (300 ng/mL) as the internal standard. Samples were vigorously mixed and centrifuged at 3,400 rpm for 10 min to pellet precipitated proteins. An aliquot of each supernatant was used for LC/MS analysis, for determination of the remaining FTY720-C2 and FTY720-Mitoxy. Similar incubations were performed using a cocktail solution containing 0.2 μM midazolam and 1 μM diclofenac to determine the metabolic activity of the microsomes as an additional control.
(§4) Samples resulting from liver microsomal incubations were analyzed by LC-MS/MS. Aliquots of the supernatants were injected onto an X-Bridge C18 column (2.1 × 50 mm, 3.5-μm particles) (Waters, Milford, MA), preceded by a SecurityGuard C18 guard column (4.0 × 2.0 mm; Phenomenex Inc.). Separations were accomplished with a gradient of 0.1% acetic acid in water (v/v) versus 0.1% acetic acid in acetonitrile: methanol (75:25, v/v) at a rate of 0.8 mL/min. The eluents were further applied into an equipped API 4000 QTrap mass spectrometer (AB Sciex, Foster City, CA) with electrospray ionization (ESI) interface by two coupled LC-10 AT pumps. Peak area ratios of FTY720-C2 or FTY720-Mitoxy against the C17 sphingosine internal standard were used to determine the amount of parent remaining compared to that at 0 min. The percent of FTY720-C2 or FTY720-Mitoxy remaining was calculated by dividing the peak area ratio obtained at each time point by that obtained at 0 min. The in vitro intrinsic clearance (CLint) was calculated by linear regression of the log percent of compound remaining versus time plots using Microsoft Excel, two independent experiments (n = 2) were performed for each compound and species. Then, the mean and standard deviation (SD), of two values for each condition, were calculated using Microsoft Excel with the “AVERAGE” and “STDEV” functions, respectively.

[3] = human, cited from earlier work
[4] = Metabolic stability (intrinsic clearance) in dog liver microsomes; type: in vitro ADME, dog (Beagle); conditions: dog liver microsomes
Experimental: as §3, §4

[5] = Metabolic stability (intrinsic clearance) in rat liver microsomes; type: in vitro ADME, rat (Sprague-Dawley); conditions: rat liver microsomes
Experimental: as §3, §4

[6] = Metabolic stability (intrinsic clearance) in mouse liver microsomes; type: in vitro ADME, mouse (CD-1); conditions: mouse liver microsomes
Experimental: as §3, §4

[7] = Metabolic stability (intrinsic clearance) in human liver microsomes; type: in vitro ADME
Experimental: as §3, §4

[8] = set-up: method as in PMID 16751263; conditions: rat, single IV doses ranging from 0.3 to 4 mg/kg; cited from earlier work
[9] = Metabolite profiling and identification in rat hepatocytes; type: in vitro ADME, rat (Sprague Dawley); set-up: key to Source (peak identified in rat hepatocytes): R = Rat; hr = Human; lowercase letter indicates low abundance; h: lowercase letter indicates low abundance; conditions: for Percent Distribution (1 hr incubation) Rat / Percent Distribution (2 hr incubation) Rat: relative abundance among metabolites of the parent (1 μM), equal LC/MS sensitivity assumed
Experimental: as §1, §2

[10] = human hepatocytes, listed as FTY720-C2 C8-COOH
[11] = rat hepatocytes, listed as FTY720-C2 C8-COOH
[12] = FTY720-Mitoxy incubation, Table 5
[13] = human hepatocytes, listed as FTY720-Mitoxy C6-COOH
[14] = rat hepatocytes, listed as FTY720-Mitoxy C6-COOH

Structure (SMILES) | Source (peak identified in human hepatocytes) ([1]; FTY720-C2 incubation, Table 4) | Percent Distribution (1 hr incubation) Human ([1]; human hepatocytes) | Percent Distribution (2 hr incubation) Human ([1]; human hepatocytes) | Source (peak identified in rat hepatocytes) ([9]; FTY720-C2 incubation, Table 4) | Percent Distribution (1 hr incubation) Rat ([9]; rat hepatocytes) | Percent Distribution (2 hr incubation) Rat ([9]; rat hepatocytes) | Source (peak identified in human hepatocytes) [1, 12] | Source (peak identified in rat hepatocytes) [9, 12] | further results
CCCCCCCCc1ccc(CCC(N)(CO)CO)cc1 [FTY720, Fingolimod] | – | – | – | – | – | – | – | – | phosphorylated metabolites ([1]; human hepatocytes): identified; intrinsic clearance interpreted in words [2]: slow and low; elimination half-life ([3]; after oral dosing): about 7 days; half-life ([3]; single oral doses of 1 mg): ~ 7 days; intrinsic clearance interpreted in words [4]: slow and low; intrinsic clearance interpreted in words [5]: slow and low; intrinsic clearance interpreted in words [6]: slow and low; intrinsic clearance interpreted in words [7]: slow and low; half-life [8]: ~ 20 hr; phosphorylated metabolites ([9]; rat hepatocytes): identified
O=C(O)CCCCCc1ccc(CCC(CO)(CO)NC(=O)CC[P+](c2ccccc2)(c2ccccc2)c2ccccc2)cc1 [FTY720-Mitoxy C6-carboxylic acid] | – | 58.6% | 54.8% | – | 83.6% | 79.3% | H | R | Percent Distribution (1 hr incubation) Human [1, 13]: 59%; Percent Distribution (2 hr incubation) Human [1, 13]: 55%; Percent Distribution (1 hr incubation) Rat [9, 14]: 84%; Percent Distribution (2 hr incubation) Rat [9, 14]: 79%
O=C(O)CCCCCCCc1ccc(CCC(CO)(CO)NC(=O)CC[P+](c2ccccc2)(c2ccccc2)c2ccccc2)cc1 [FTY720-Mitoxy C8-carboxylic acid] | – | 20.0% | 27.3% | – | 4.4% | 3.4% | H | R | –

Continued, in another order:

Source (peak identified in human hepatocytes) ([1]; FTY720-C2 incubation, Table 4) | Percent Distribution (1 hr incubation) Human ([1]; human hepatocytes) | Percent Distribution (2 hr incubation) Human ([1]; human hepatocytes) | Source (peak identified in rat hepatocytes) ([9]; FTY720-C2 incubation, Table 4) | Percent Distribution (1 hr incubation) Rat ([9]; rat hepatocytes) | Percent Distribution (2 hr incubation) Rat ([9]; rat hepatocytes) | Structure (SMILES) | Source (peak identified in human hepatocytes) [1, 12] | Source (peak identified in rat hepatocytes) [9, 12] | further results
H | 3.2% | 7.21% | R | 21.4% | 35.72% | CC(=O)NC(CO)(CO)CCc1ccc(CC(=O)O)cc1 [FTY720-C2 C2-carboxylic acid] | – | – | –
H | 23.7% | 25.57% | R | 9.7% | 12.88% | CC(=O)NC(CO)(CO)CCc1ccc(CCCC(=O)O)cc1 [FTY720-C2 C4-carboxylic acid] | – | – | –
H | 49.0% | 52.13% | R | 37.0% | 39.37% | CC(=O)NC(CO)(CO)CCc1ccc(CCCCCCCC(=O)O)cc1 [FTY720-C2 C8-carboxylic acid] | – | – | Percent Distribution (1 hr incubation) Human [1, 10]: 49%; Percent Distribution (2 hr incubation) Human [1, 10]: 52%; Percent Distribution (1 hr incubation) Rat [9, 11]: 37%; Percent Distribution (2 hr incubation) Rat [9, 11]: 39%
